Literature values, collected in patent US20110118360A1, “AGENT FOR ACTIVATING STEM CELLS” (priority 2008, published 2011).

B1: Filgastrim: glycoprotein consisting of 175 amino acids obtained by expression of a human gene in E. coli (protein, chains of the INN, looked up)
chain: MTPLGPASSLPQSFLLKCLEQVRKIQGDGAALQEKLCATYKLCHPEELVLLGHSLGIPWAPLSSCPSQALQLAGCLSQLHSGLFLYQGLLQALEGISPELGPTLDTLQLDVADFATTIWQQMEELGMAPALQPTQGAMPAFASAFQRRAGGVLVASHLQSFLEVSYRVLRHLAQP
modifications: N-terminal methionine, E. coli expressed
notes: glycoprotein consisting of 175 amino acids obtained by expression of a human gene in E. coli

What was measured:
neutrophils = conditions: shortened from 5

Molecule | effect on 26S proteasome activity (26S proteasome) | effect on mesenchymal stem cells (mesenchymal stem cells) | maturation period of neutrophils from the progenitor cells (neutrophils) [days]
CC(C)C[C@H](NC(=O)[C@H](Cc1ccccc1)NC(=O)c1cnccn1)B(O)O [bortesomib, [(1R)-3-methyl-1 [[(2S)-1-oxo-3-phenyl-2-[(pirasinilcarbonil)amino]propyl]amino]butyl]] | highly selective reversible inhibitor | direct pharmacological effect on mesenchymal stem cells | –
B1 | – | – | 1
